The test system of one data set is CCRF-SB cells. Put plainly: Cell cycle FACS analysis (propidium iodide). The class given is cell-based. The procedure:
Representative fluorescence-activated cell sorting (FACS) analysis of propidium iodide-stained CCRF-SB cells under normal growth conditions, and growth in the presence of the compound of formula I. The average percentage of cells in G0-G1, S, and G2-M phases is calculated in the table below the histographs.

Data set [1] concerns IGROV-1 and OVCAR-3 cell lines. In words: Proliferation of ovarian cancer cell lines (AlamarBlue). The class given is cell-based. Particulars: IGROV-1, OVCAR-3, 48 hrs and 72 hrs. The procedure: IGROV-1 and OVCAR-3 cell lines were grown in the presence of serum plus the indicated concentrations of the compound of formula I. Proliferation was measured in triplicate wells by AlamarBlue assay (Invitrogen) 96-well plates.

In the next data set the test system is patient AML cells. Put plainly: Phospho-Akt production in patient AML cells. The class given is cell-based, human. Particulars: 0.1, 1.0, 10 μM. The text has this:
PI3Kδ is implicated in signaling in AML patient cells.

Data set [2] has as its system LB and INA-6 MM cells with BMSCs. Put plainly: Paracrine MM cell growth, cytokine secretion and signaling with BMSCs. It is filed as cell-based, human. The method, then:
MM cells (2×10^4 cells/well) were cultured for 48 h in BMSC coated 96-well plates (Costar, Cambridge, Mass.), in the presence or absence of drug. DNA synthesis was measured by [3H]-thymidine (Perkin-Elmer, Boston, Mass.) uptake, with [3H]-thymidine (0.5μ Ci/well) added during the last 8 h of 48 h cultures. All experiments were performed in quadruplicate.
Cytokine secretion by human BMSCs cocultured with MM cells was assessed by ELISA. […] After 48 h, supernatants were harvested and stored at −80° C. Cytokines were measured using Duo set ELISA Development Kits (R&D Systems, Minneapolis, Minn.). All measurements were carried out in triplicate.
The cytokine levels in culture supernatants were assessed using Proteome Profiler Antibody Arrays Panel A (R&D Systems, Minneapolis, Minn.), Supernatants from co-cultures with BMSCs were incubated for 4 hours with membranes arrayed with Abs against 37 cytokines, according to manufacturer's instructions.
DNA synthesis was determined by [3H]-thymidine incorporation. Data represent means (±SD) of triplicate cultures.
Error bars indicate SD (±).
INA-6 cells cultured with or without BMSCs were treated with compound for 48 h. Total cell lysates were subjected to immunoblotting using indicated antibodies, FIG. 34F. Actin was used as a loading control.

The subject of another data set is AKT and ERK1/2. In words: AKT and ERK1/2 in HuVEC (immunoblot). It is filed as cell-based, human. Particulars: 8 h. An excerpt: Actin was used as a loading control.
(A western blot detects proteins with antibodies after separation by electrophoresis.)

The next data set deals with FL cell lines. Put plainly: PI3K signaling and apoptosis in follicular lymphoma cell lines. It is filed as cell-based.
In a further data set the test system is CLL. In words: Previous single-agent study in patients with CLL. The class given is in vivo, human. Particulars: single-agent therapy.
The test system of data set [3] is previously treated B-cell malignancies (iNHL, CLL). Put plainly: Clinical study, combination with rituximab or bendamustine, 49 patients (Example 42). Particulars: human, in vivo. An excerpt: 49 patients were enrolled in the study, including 27 with iNHL and 22 with CLL. At the baseline, patients had adverse prognostic characteristics, including older age, bulky adenopathy, and refractory disease. All patients had received ≧1 prior treatment regimen and some had received as many 9 prior regimens. Prior treatment included rituximab, alkylating agents and/or fludarabine; the majority of patients with iNHL had been treated with prior anthracycline-containing therapy. Follow-up was early in many patients, with durations of therapy ranging from 1 to 12 cycles.
All patients received the compound of formula I, either 100 mg orally twice per day (BID) or 150 mg orally twice per day (BID) for as long as the patient was benefiting. Patients also received either rituximab 375 mg/m^2 administered weekly for 8 weeks, starting on Day 1 of Cycle 1, or bendamustine 90 mg/m^2 administered on Days 1 and 2 of each cycle for 6 cycles. Tumor response was evaluated according to standard criteria.

A further data set has as its system CLL cells. Put plainly: BH3 profiling (mitochondrial depolarization) of CLL cells. The class given is cell-based, human. Particulars: 24 hours; p=0.075. The procedure: CLL patient peripheral blood, bone marrow, and lymph node samples were analyzed by either the plate-based fluorimetry or FACS method. Briefly, PBMCs from CLL patients were made into single cell suspensions and gently permeabilized using digitonin (0.002%). For the fluorimtery-based method, 100 μM JC-1 (Invitrogen) was added at this time and cells were then loaded onto a 384-well plate, with individual wells containing individual BH3-only peptides. The JC1-BH3 assays were then conducted in triplicate on a Tecan Safire 2 with […] and Em 590+/−20 nm with a three-hour time course. For the FACS-based method, single cell suspensions from CLL patient PBMCs were stained using human Fc Block (BD Pharmingen) followed by anti-CD19-V450 (BD Pharmingen) and anti-CXCR4-APC (BD Pharmingen). […] JC-1 was measured from the 488-nm laser using a 530/30-nm filter (FITC) and a 585/42-nm filter (PE), and the degree of mitochondrial depolarization was calculated using the surrogate of the change in the median of PE signal. The mitochondrial depolarization reported in response to each BH3 peptide is normalized relative to the median percentage change in PE fluorescence of the JC-1 dye with a negative control, dimethyl sulfoxide (DMSO) (0%) and a positive control, the mitochondrial uncoupling agent carbonyl cyanide 4-(trifluoromethoxy)-phenylhydrazone (FCCP) (100%). […]

As to `CC[C@H](Nc1ncnc2[nH]cnc12)c1nc2cccc(F)c2c(=O)n1-c1ccccc1` [Compound I, 5-fluoro-3-phenyl-2-[1-(9H-purin-6-ylamino)-propyl]-3H-quinazolin-4-one], the cell cycle result in the data set with CCRF-SB cells is reported as “G0/G1 cell cycle arrest”. Also, the “proliferation of ovarian cancer cell lines” value in data set [1] is “cytotoxic to two ovarian cancer cell lines”. For the same compound, the “proliferation of ovarian cancer cell lines” value in data set [1] (listed as compound of formula I) was “inhibits proliferation of ovarian cancer cell lines”. In addition, in the data set on patient AML cells, the “phospho-Akt production in patient AML cells” value was “reduces phospho-Akt production in patient AML cells”. For the same compound, the “MM cell growth and cytokine secretion induced by BMSCs” value in [2] (48 h) is “inhibited growth and cytokine secretion”. In addition, the “phosphorylation of AKT and ERK induced by BMSCs” value in [2] (INA-6, 48 h) is recorded as “inhibited”. Also, in the data set on AKT and ERK1/2, the “phosphorylation and expression of AKT and ERK1/2 in HuVEC” value is recorded as “markedly down regulated”. For the same compound, the “pAkt, Akt, pS6 and S6 in FL cell lines” value in the data set with FL cell lines was “reduction in the production of pAkt, Akt, pS6 and S6”. Also, the “cleavage of PARP and Caspase-3 in FL cell lines” value with FL cell lines (24 hours, 0.1 μM and 0.5 μM) is “Cleavage of PARP and Caspase-3 is observed”. In addition, in the data set on CLL, the “fraction of patients with CLL with lymphocytosis” value is listed as “⅔” and the lymphocyte redistribution entry is on record as “transient lymphocytosis in patients with CLL”. Also, the dose-limiting toxicities entry in data set [3] was “No dose-limiting toxicities related to the compound of formula I were observed”. Besides, the “mitochondrial priming of stroma-exposed CLL cells” value with CLL cells is “increased mitochondrial priming”.

Source of the values: patent publication US20130064812A1, “COMBINATION THERAPIES FOR HEMATOLOGIC MALIGNANCIES” (Gilead Calistoga LLC, priority 2011, published 2013).
